Assay results as given in patent US10765114B2, “4-amino-6-(pyridyl and 2-substitutedphenyl)-picolinates and 6-amino-2-(pyridyl and 2-substitutedphenyl)-pyrimidine-4-carboxylates and their use as herbicides” (Dow AgroSciences LLC, priority 2013, dated 2020).

Test system: not given
Assay: not given
Conditions: not given
In the case of CCc1c(-c2cc(N)c(Cl)c(C(=O)O)n2)ccc(Cl)c1F [Compound 86], the melting point is reported as 144 to 146 °C.

Test system: Key Grass and Sedge Weeds as well as Grass Crops
Assay: Post-Emergent Test II (Table 6)
Format: in vivo
Conditions: post-emergence, 336 h, CYPSS, 70 g ai/ha, 14 days after application, read-out: Visual Growth Reduction (%) 14 Days After Application CYPSS
Procedure, shortened: (§1)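 Growth stage at treatment: first or second true leaf. Application: compound in acetone/DMSO diluted into an adjuvant-containing aqueous mix, sprayed at 187 L/ha at several rates. Assessment: visual 0-100% injury at 14 days against untreated plants.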
CCc1c(-c2cc(N)c(Cl)c(C(=O)O)n2)ccc(Cl)c1F [Compound 86] gave a pest or weed control at 70 g/ha of 0 to 29%.

Same assay, conditions: post-emergence, 336 h, CYPSS, 140 g ai/ha, 14 days after application, read-out: Visual Growth Reduction (%) 14 Days After Application CYPSS
With CCc1c(-c2cc(N)c(Cl)c(C(=O)O)n2)ccc(Cl)c1F [Compound 86] the pest or weed control at 140 g/ha was 0 to 29%.

Same assay, conditions: post-emergence, 336 h, DIGSA: crabgrass (Digitaria sanguinalis), 70 g ai/ha, 14 days after application, read-out: Visual Growth Reduction (%) 14 Days After Application DIGSA
With CCc1c(-c2cc(N)c(Cl)c(C(=O)O)n2)ccc(Cl)c1F [Compound 86] the pest or weed control at 70 g/ha was 0 to 29%.

Same assay, conditions: post-emergence, 336 h, DIGSA: crabgrass (Digitaria sanguinalis), 140 g ai/ha, 14 days after application, read-out: Visual Growth Reduction (%) 14 Days After Application DIGSA
CCc1c(-c2cc(N)c(Cl)c(C(=O)O)n2)ccc(Cl)c1F [Compound 86] showed a pest or weed control at 140 g/ha of 0 to 29%.

Same assay, conditions: post-emergence, 336 h, ECHSS, 70 g ai/ha, 14 days after application, read-out: Visual Growth Reduction (%) 14 Days After Application ECHSS
Molecule CCc1c(-c2cc(N)c(Cl)c(C(=O)O)n2)ccc(Cl)c1F [Compound 86] has a pest or weed control at 70 g/ha of 0 to 29%.

Same assay, conditions: post-emergence, 336 h, ECHSS, 140 g ai/ha, 14 days after application, read-out: Visual Growth Reduction (%) 14 Days After Application ECHSS
In the case of CCc1c(-c2cc(N)c(Cl)c(C(=O)O)n2)ccc(Cl)c1F [Compound 86], the pest or weed control at 140 g/ha is reported as 0 to 29%.

Same assay, conditions: post-emergence, 336 h, ORYSS (crop), 70 g ai/ha, 14 days after application, read-out: Visual Growth Reduction (%) 14 Days After Application ORYSS
With CCc1c(-c2cc(N)c(Cl)c(C(=O)O)n2)ccc(Cl)c1F [Compound 86] the pest or weed control at 70 g/ha was 0 to 29%.

Same assay, conditions: post-emergence, 336 h, ORYSS (crop), 140 g ai/ha, 14 days after application, read-out: Visual Growth Reduction (%) 14 Days After Application ORYSS
In the case of CCc1c(-c2cc(N)c(Cl)c(C(=O)O)n2)ccc(Cl)c1F [Compound 86], the pest or weed control at 140 g/ha is reported as 0 to 29%.

Same assay, conditions: post-emergence, 336 h, SETFA: giant foxtail (Setaria faberi), 70 g ai/ha, 14 days after application, read-out: Visual Growth Reduction (%) 14 Days After Application SETFA
Molecule CCc1c(-c2cc(N)c(Cl)c(C(=O)O)n2)ccc(Cl)c1F [Compound 86] has a pest or weed control at 70 g/ha of 0 to 29%.

Same assay, conditions: post-emergence, 336 h, SETFA: giant foxtail (Setaria faberi), 140 g ai/ha, 14 days after application, read-out: Visual Growth Reduction (%) 14 Days After Application SETFA
With CCc1c(-c2cc(N)c(Cl)c(C(=O)O)n2)ccc(Cl)c1F [Compound 86] the pest or weed control at 140 g/ha was 0 to 29%.

Same assay, conditions: post-emergence, 336 h, SORVU: grain sorghum (Sorghum vulgare), 70 g ai/ha, 14 days after application, read-out: Visual Growth Reduction (%) 14 Days After Application SORVU
Molecule CCc1c(-c2cc(N)c(Cl)c(C(=O)O)n2)ccc(Cl)c1F [Compound 86] has a pest or weed control at 70 g/ha of 0 to 29%.

Same assay, conditions: post-emergence, 336 h, SORVU: grain sorghum (Sorghum vulgare), 140 g ai/ha, 14 days after application, read-out: Visual Growth Reduction (%) 14 Days After Application SORVU
With CCc1c(-c2cc(N)c(Cl)c(C(=O)O)n2)ccc(Cl)c1F [Compound 86] the pest or weed control at 140 g/ha was 0 to 29%.

Same assay, conditions: post-emergence, 336 h, TRZSS (crop), 70 g ai/ha, 14 days after application, read-out: Visual Growth Reduction (%) 14 Days After Application TRZSS
Molecule CCc1c(-c2cc(N)c(Cl)c(C(=O)O)n2)ccc(Cl)c1F [Compound 86] has a pest or weed control at 70 g/ha of 0 to 29%.

Same assay, conditions: post-emergence, 336 h, TRZSS (crop), 140 g ai/ha, 14 days after application, read-out: Visual Growth Reduction (%) 14 Days After Application TRZSS
With CCc1c(-c2cc(N)c(Cl)c(C(=O)O)n2)ccc(Cl)c1F [Compound 86] the pest or weed control at 140 g/ha was 0 to 29%.

Same assay, conditions: post-emergence, 336 h, ZEAMX: maize, corn (Zea mays), 70 g ai/ha, 14 days after application, read-out: Visual Growth Reduction (%) 14 Days After Application ZEAMX
CCc1c(-c2cc(N)c(Cl)c(C(=O)O)n2)ccc(Cl)c1F [Compound 86] gave a pest or weed control at 70 g/ha of 0 to 29%.

Same assay, conditions: post-emergence, 336 h, ZEAMX: maize, corn (Zea mays), 140 g ai/ha, 14 days after application, read-out: Visual Growth Reduction (%) 14 Days After Application ZEAMX
In the case of CCc1c(-c2cc(N)c(Cl)c(C(=O)O)n2)ccc(Cl)c1F [Compound 86], the pest or weed control at 140 g/ha is reported as 0 to 29%.

Test system: Key Broadleaf Weed and Crop Species
Assay: Post-Emergent Test II (Table 5)
Format: in vivo
Conditions: Abutilon theophrasti, post-emergence, 336 h, ABUTH: velvetleaf (Abutilon theophrasti), application rate 70 (kg ai/ha; footnote: g ai/ha), read-out: Visual Growth Reduction (%) 14 Days After Application ABUTH
Procedure, shortened: as §1
CCc1c(-c2cc(N)c(Cl)c(C(=O)O)n2)ccc(Cl)c1F [Compound 86] showed a pest or weed control at 70 g/ha of 45 to 59%.

Same assay, conditions: Abutilon theophrasti, post-emergence, 336 h, ABUTH: velvetleaf (Abutilon theophrasti), application rate 140 (kg ai/ha; footnote: g ai/ha), read-out: Visual Growth Reduction (%) 14 Days After Application ABUTH
With CCc1c(-c2cc(N)c(Cl)c(C(=O)O)n2)ccc(Cl)c1F [Compound 86] the pest or weed control at 140 g/ha was 0 to 29%.

Same assay, conditions: Amaranthus retroflexus, post-emergence, 336 h, AMARE: redroot pigweed (Amaranthus retroflexus), application rate 70 (kg ai/ha; footnote: g ai/ha), read-out: Visual Growth Reduction (%) 14 Days After Application AMARE
With CCc1c(-c2cc(N)c(Cl)c(C(=O)O)n2)ccc(Cl)c1F [Compound 86] the pest or weed control at 70 g/ha was 85 to 94%.

Same assay, conditions: Amaranthus retroflexus, post-emergence, 336 h, AMARE: redroot pigweed (Amaranthus retroflexus), application rate 140 (kg ai/ha; footnote: g ai/ha), read-out: Visual Growth Reduction (%) 14 Days After Application AMARE
Molecule CCc1c(-c2cc(N)c(Cl)c(C(=O)O)n2)ccc(Cl)c1F [Compound 86] has a pest or weed control at 140 g/ha of 85 to 94%.

Same assay, conditions: Brassica napus, post-emergence, 336 h, BRSSS: oilseed rape, canola (Brassica napus), application rate 70 (kg ai/ha; footnote: g ai/ha), read-out: Visual Growth Reduction (%) 14 Days After Application BRSSS
For CCc1c(-c2cc(N)c(Cl)c(C(=O)O)n2)ccc(Cl)c1F [Compound 86], the pest or weed control at 70 g/ha was 75 to 84%.

Same assay, conditions: Brassica napus, post-emergence, 336 h, BRSSS: oilseed rape, canola (Brassica napus), application rate 140 (kg ai/ha; footnote: g ai/ha), read-out: Visual Growth Reduction (%) 14 Days After Application BRSSS
CCc1c(-c2cc(N)c(Cl)c(C(=O)O)n2)ccc(Cl)c1F [Compound 86] showed a pest or weed control at 140 g/ha of 85 to 94%.

Same assay, conditions: Chenopodium album, post-emergence, 336 h, CHEAL: lambsquarters (Chenopodium album), application rate 70 (kg ai/ha; footnote: g ai/ha), read-out: Visual Growth Reduction (%) 14 Days After Application CHEAL
Molecule CCc1c(-c2cc(N)c(Cl)c(C(=O)O)n2)ccc(Cl)c1F [Compound 86] has a pest or weed control at 70 g/ha of 85 to 94%.

Same assay, conditions: Chenopodium album, post-emergence, 336 h, CHEAL: lambsquarters (Chenopodium album), application rate 140 (kg ai/ha; footnote: g ai/ha), read-out: Visual Growth Reduction (%) 14 Days After Application CHEAL
CCc1c(-c2cc(N)c(Cl)c(C(=O)O)n2)ccc(Cl)c1F [Compound 86] showed a pest or weed control at 140 g/ha of 85 to 94%.

Same assay, conditions: Euphorbia heterophylla, post-emergence, 336 h, EPHHL: wild poinsettia (Euphorbia heterophylla), application rate 70 (kg ai/ha; footnote: g ai/ha), read-out: Visual Growth Reduction (%) 14 Days After Application EPHHL
For CCc1c(-c2cc(N)c(Cl)c(C(=O)O)n2)ccc(Cl)c1F [Compound 86], the pest or weed control at 70 g/ha was 0 to 29%.

Same assay, conditions: Euphorbia heterophylla, post-emergence, 336 h, EPHHL: wild poinsettia (Euphorbia heterophylla), application rate 140 (kg ai/ha; footnote: g ai/ha), read-out: Visual Growth Reduction (%) 14 Days After Application EPHHL
In the case of CCc1c(-c2cc(N)c(Cl)c(C(=O)O)n2)ccc(Cl)c1F [Compound 86], the pest or weed control at 140 g/ha is reported as 0 to 29%.

Same assay, conditions: Helianthus annuus, post-emergence, 336 h, HELAN: sunflower (Helianthus annuus), application rate 70 (kg ai/ha; footnote: g ai/ha), read-out: Visual Growth Reduction (%) 14 Days After Application HELAN
In the case of CCc1c(-c2cc(N)c(Cl)c(C(=O)O)n2)ccc(Cl)c1F [Compound 86], the pest or weed control at 70 g/ha is reported as 75 to 84%.

Same assay, conditions: Helianthus annuus, post-emergence, 336 h, HELAN: sunflower (Helianthus annuus), application rate 140 (kg ai/ha; footnote: g ai/ha), read-out: Visual Growth Reduction (%) 14 Days After Application HELAN
In the case of CCc1c(-c2cc(N)c(Cl)c(C(=O)O)n2)ccc(Cl)c1F [Compound 86], the pest or weed control at 140 g/ha is reported as 75 to 84%.

Same assay, conditions: Viola tricolor, post-emergence, 336 h, VIOTR: wild pansy (Viola tricolor), application rate 70 (kg ai/ha; footnote: g ai/ha), read-out: Visual Growth Reduction (%) 14 Days After Application VIOTR
With CCc1c(-c2cc(N)c(Cl)c(C(=O)O)n2)ccc(Cl)c1F [Compound 86] the pest or weed control at 70 g/ha was 0 to 29%.

Same assay, conditions: Viola tricolor, post-emergence, 336 h, VIOTR: wild pansy (Viola tricolor), application rate 140 (kg ai/ha; footnote: g ai/ha), read-out: Visual Growth Reduction (%) 14 Days After Application VIOTR
With CCc1c(-c2cc(N)c(Cl)c(C(=O)O)n2)ccc(Cl)c1F [Compound 86] the pest or weed control at 140 g/ha was 0 to 29%.
